We go through one compound from patent US20220251096A1, “7,8-DIHYDRO-4H-PYRAZOLO[4,3-c]AZEPINE-6-ONE COMPOUNDS” (Eli Lilly and Company, priority 2019, published 2022).

Experiment [1] has as its system NCI-H1048. Briefly: Cell growth inhibition assay, NCI-H1048. The class given is cell-based. Conditions: Homo sapiens, 168 h; NCI-H1048, 7 days. The procedure: (§1) Tumor cell lines are plated onto 96-well, black wall poly-D-lysine plates (Corning #354640), and incubated at 37° C., 5% CO2 for 18-24 hours. Compound was added at 1:3 dilutions in DMSO and cells were incubated at 37° C., 5% CO2 for 7 days. For adherent cell lines, cells were fixed and stained with propidium iodide and scanned on Acumen (channel 3 setting). For suspension cell lines, cell growth was monitored using Cell Titer-Glo reagent.

The target in experiment [2] is T1, BRD4 (BD1, BD2) (Homo sapiens, UniProt O60885).
T1 construct: BRD4 (Bromodomain 1 (BD1) and Bromodomain 2 (BD2)); purchased DiscoverX (BromoKdELECT service)
Briefly: BromoKdELECT platform assay, BRD4 (BD1, BD2). The class given is binding. The note with it: 11 points dose-response, mean from a duplicate experiment. An excerpt:
The purpose of this assay is to evaluate the in vitro target engagement and selectivity (https://www.discoverx.com/services/drug-discovery-development-services/epigenetic-profiling/bromoscan-epigenetic-profiling/bromokdelect). Assay measurement is based on the amount of bromodomain captured in test and control samples by using quantitative PCR technology that detects the DNA label associated to bromodomain. Compounds that bind the bromodomain active site prevents its binding to the immobilized ligand and will reduce the amount of bromodomain captured on the solid support. […] Thus, compound activity is monitored by measuring the amount of bromodomain captured in test versus control samples by using qPCR. Binding affinity for test compound-bromodomain interactions are calculated by measuring the amount of bromodomain captured on the solid support as a function of the test compound concentration.
Binding affinity (Kd) of the compounds of Examples 1 and 2 towards CREBBP, EP300 and BRD4 (Bromodomain 1 (BD1) and Bromodomain 2 (BD2)) are determined in an 11 points dose-response study (See Table 5). Data is represented as a mean from a duplicate experiment.

Experiment [3] has as its system SKNO-1 (AML1-ETO). The experiment can be described thus: Cell growth inhibition assay, SKNO-1 (AML1-ETO). Format: cell-based. Conditions: 168 h, 7 days. The procedure:
as §1

The test system of experiment [4] is OCI-AML2. Briefly: Cell growth inhibition assay, OCI-AML2. Format: cell-based. The note with it: Homo sapiens, 168 h; OCI-AML2, 7 days. The procedure:
as §1

Experiment [5] concerns 22Rv1 prostate cancer cells. Briefly: Cell proliferation assay in 22Rv1. The class given is cell-based. Conditions: 22Rv1, 7 days. On the procedure:
The purpose of the following cell proliferation assay is to detect whether the compound of Example 2 and combinations thereof have an effect on cell proliferation.
22Rv1 (purchased from ATCC CRL-2505) cells are seeded at a density of 1,000 cells per well in RMPI 10% FBS (20 μL volume) into a clear bottom 384-well cell culture plate. The plate is incubated at 37° C. and 5% CO2. The cells are dosed the following day with the compound of Example 2 and the compound of Example 2 in combination with the known anti-cancer therapeutics found in the table below. An Echo 555 acoustic dispenser is used to prepare serial dilutions (1:3) of the compound of Example 2, and combinations thereof, in concentrations ranging from 60 μM to 0.003 μM. The cells are then dosed by addition of 5 μL from the serial dilution plate to the cell plate, producing a final DMSO concentration of 0.2% with a final concentration dose ranging from 20 μM to 0.001 μM for the compound of Example 2 and combinations thereof.
Media containing 0.2% DMSO is used for the maximum point and 2 μM staurosporine in the growth media containing 0.2% DMSO is used for the minimum point. After dosing with the compound of Example 2 and combinations thereof, the cell plates are incubated at 37° C. and 5% CO2. Seven days after test compound addition, plates are removed from the incubator and cold EtOH (96%, 65 μL) is added to each well. After 30 minutes, the media is removed and RNase (20 μL, 50 μg/mL) (Sigma) and a 1:1000 propidium iodide dilution in PBS are added to each well. The plates are sealed and incubated for 1 hour at room temperature and preserved from light. Plates are then scanned with ACUMEN EXPLORER™ [Laser-scanning fluorescence microplate cytometer manufactured by TTP LABTECH LTD]. The number of 22Rv1 cells is evaluated through an estimated number of cells, calculated through the area parameter (ratio of total area of the total cells population), a designated range of peak intensity of FL-3 (PI), and the mean area of the single cell population defined by perimeter. Data is then processed through an NGR screening tool. Data is analyzed using a 4-parameter nonlinear logistic equation (four-parameter logistic concentration-response curve): Y=bot+[(top−bot)/1+(x/IC50)slope] where Y=% inhibition, X=concentration yielding y % inhibition, “bot”=minimum value of y attained by curve, “top”=maximum value of y attained by curve, and “slope”=steepness of curve at IC50. % Inh=[(median Max−x/median Max−median Min)]·100.

The test system of experiment [6] is MDA-MIB-453. Briefly: Cell growth inhibition assay, MDA-MIB-453. The class given is cell-based. The note with it: 168 h; MDA-MIB-453, 7 days. The procedure: as §1

pIC50, pKd: −log10 of the molar value. Where “and” joins values, the source holds several entries; their conditions need not be identical. Equal values may be shown once.

Usually pIC50 stands for the negative decadic logarithm of the IC50, by convention in mol/L. A low value points to a large IC50. What is called pKd is −log10 of the Kd, conventionally taken in molar units. In general, inhibition refers to the percentage by which the read-out fell short of the control. For the compound `CCNC(=O)c1ccc(-c2cc3cccc(-c4nn(C)c5c4CN(C)C(=O)CC5)c3cn2)cn1` [Example 2, 5-[8-(1,5-Dimethyl-6-oxo-7,8-dihydro-4H-pyrazolo[4,3-c]azepin-3-yl)-3-isoquinolyl]-N-ethyl-pyridine-2-carboxamide], the pIC50 was 7.74 in experiment [1], 7.74 in experiment [3], 6.68 in experiment [4] and 7.46 in experiment [6]. Further, the pKd in experiment [2] was 5.13. Further, the “Cell Proliferation % Inhibition” value in experiment [5] (single agent at 120 nM, 0.12 µM) is 9.62%; in experiment [5] (single agent at 370 nM, 0.37 µM), 18.68% and 31.53%. Besides, in experiment [5] (Homo sapiens, 22Rv1, 168 h, single agent at 120 nM), the inhibition at 0.12 µM was determined as 17.4%. Also, in experiment [5] (Homo sapiens, 22Rv1, 168 h, single agent at 370 nM), the inhibition at 0.37 µM came to 35.4%. For the same compound, in experiment [5] (Homo sapiens, 22Rv1, 168 h, single agent at 740 nM), the inhibition at 0.74 µM came to 12.2%. For the same compound, the inhibition at 2.2 µM in experiment [5] (Homo sapiens, 22Rv1, 168 h, single agent at 2.2 μM) was determined as 19.3%. Moreover, the inhibition at 3.3 µM in experiment [5] (Homo sapiens, 22Rv1, 168 h, single agent at 3.3 μM) turned out to be 46.3%.
